Test results taken from patent US9995734B2, “Human T cell line assay for evaluating the immunologic identity of glatiramer acetate preparations” (Mylan Inc., priority 2013, dated 2018).

How the values were obtained:
[1] = tested on: Donor 4 COP T-cell lines (205-1D1, 205-1H7, 205-1F4); assay: MHC DR restriction testing (ATP proliferation with autologous and partially HLA-DR matched B-LCL), Donor 4 COP T-cell lines; type: cell-based, human; settings: for Proliferation with antigen-incubated B-LCL, Mean: T-cell line 205-1F4
Description: MHC DR restriction testing of cell lines was carried out by measuring the proliferation response of the cell lines as described above in the presence of an array of APC selected based on the known HLA-DR loci of the original PBMC donor for the cell line tested, including autologous APC (B-LCL). The donors used are described in Table 2.
To define the MHC molecule used to present antigen to GA specific T cell lines, GA specific responses were measured in the presence of autologous APC and in the presence of APC matching one of the T cell donor's HLA-DR alleles. Therefore at least 3 APC were used in each experiment: autologous APC, APC matching DR allele 1 but not allele 2 and a third APC matching allele 2 but not allele 1. In some experiments a fourth APC B-LCL was used. A no antigen negative control was used. APC were inactivated by incubation with 50 ug/mL mitomycin C. Following inactivation, cells were washed three times to remove mitomycin C and suspended in X-VIVO 15 medium at 1×10^6 cells per mL. GA was added to the cell suspension to a final concentration of 20-60 μg/mL. The cells were incubated with antigen for 1 hour at 37° C. to allow antigen uptake and binding. The cell suspension was then centrifuged to pellet the cells and the cell pellet was washed once with medium. APC were adjusted to 2×10^5 cells per mL in X-VIVO 15 medium and added to opaque 96-well plates at 100 μL per well. T-cell suspensions of 2-4×10^5 cells per mL (unless otherwise specified) were added to the 96-well plates at 100 μL per well and the cultures incubated 4 days before measuring cell numbers using CellTiter Glo® (to evaluate proliferation).
Alternatively, APC were not pulsed. Instead, each well contained 10 ug/mL antigen, 50 μl APC and 100 μL of T cells.
After incubating for 4 days at 37° C. (5% CO2), 100 μL were removed from each well, combined with 100 μL CellTiterGlo reagent, and luminescence was measured using a Packard Fusion. Results were expressed in relative light units (RLU).
As described in the Methods, T-cell lines were tested for MHC restriction by measuring proliferation following incubation with APC. Mitomycin-treated autologous APC, and test APC, e.g., from donors having at least one HLA-DR match with the original PBMC donor were employed. The values in the data tables below are in RLU.
(§1) Donor 4 T-cell line 205-1D1 was assayed for proliferation, using autologous B-LCL, and B-LCL from Donors 1, 2, and 6 that had been incubated in the presence or absence of 60 μg/mL COP. T-cell line 205-1D1 was restimulated 5 times (not including the initial stimulation) with antigen before the MHC restriction assay was carried out. The results, shown in Table 73, indicate that 205-1D1 is restricted by HLA-DRβ1*13.
as §1, with “205-1H7” for “205-1D1”, “40” for “60”, “74 and FIG. 14B,” for “73,”
Donor 4 T-cell line 205-1F4 and 205-1C4 was assayed for proliferation, using autologous B-LCL, and B-LCL from Donors 1, 2, and 6 that had been incubated in the presence or absence of 40 μg/mL COP. T-cell line 205-1F4 was restimulated 7 times (not including the initial stimulation) with antigen before the MHC restriction assay was carried out. The results, shown in Table 75, indicate that 205-1F4 is restricted by HLA-DRβ1*13.

[2] = tested on: Donor 1 Human T-Cell Lines (GMA-stimulated); assay: BrdU uptake proliferation assay, Donor 1 T-cell lines initially stimulated with GMA; type: cell-based; settings: 10 μg/mL GMA
Description: Proliferation was evaluated by measuring ATP content using a luminescent method (CellTiter Glo Luminescent Cell Viability Assay, Promega, Madison, Wis., cat. #G7571) or by measuring BrdU uptake by ELISA (Millipore cat. #2752), in both cases following kit instructions. A split well format was used. Cells in each well were resuspended and 65 μl transferred to the wells of each of two new U-bottom 96-well plates, to generate the replicate plates. For the initial screening, the original 96-well plate received mitomycin-treated autologous PBMC as APC plus 10 μg/mL antigen (GA). A first replicate plate received 100 μl., mitomycin-treated PBMC alone (2×10^5), and no antigen, and a second replicate plate received 100 μL mitomycin-treated PBMC plus GA at a final concentration of 10 μg/mL. Therefore, all three plates received autologous APC (PBMC) treated with mitomycin C to prevent cell division. […] The latter two plates were incubated for 3 days at 37° C., 6% CO2 before adding CellTiter Glo or BrdU and measuring signal. IL-2 was added at 10 U/mL to the original 96-well plate for expansion on Day 17. For subsequent screenings, mitomycin-treated EBV-transformed autologous B-LCL (2×10^5 to 5×10^5 cells/mL) were used as APC.
GMA-responsive cell lines were obtained from Donor 1 PBMC as described above (2×10^5 cells/well, i.e., 1×10^6 cells/mL, plated with 10 μg/mL GMA; IL-2 added on Days 3 and 7). In a split well assay begun on Day 12 the cells were stimulated with 10 μg/mL GMA and 1×10^5 mitomycin-treated autologous PBMC as APC. BrdU was added on Day 3, cells were incubated 4.5 hours and fixed, and uptake measured. […] These cell lines each produced an increase in signal of at least 50% relative to (no antigen) control.

GA-specific T-cell lines = type: cell-based, human; settings: concentrations approaching and exceeding 10 μg/mL; data not shown
Description: GA-specific T-cell lines from Donors 1 and 3 were tested for proliferation in response to stimulation with peptide GL 14, poly (Glu-Lys 1:4).

## glatiramer acetate [COP]
[1]; T-cell line 205-1D1, B-LCL Donor 1 DRβ1*04:01/DRβ1*07:01, 60 μg/mL
  Proliferation with antigen-incubated B-LCL: 1504.7 RLU
[1]; T-cell line 205-1D1, B-LCL Donor 2 DRβ1*04:01/DRβ1*04:04, 60 μg/mL
  Proliferation with antigen-incubated B-LCL: 1203.7 RLU
[1]; T-cell line 205-1D1, B-LCL Donor 4 (autologous) DRβ1*07/DRβ1*13, 60 μg/mL
  Proliferation with antigen-incubated B-LCL: 231113.0 RLU
[1]; T-cell line 205-1D1, B-LCL Donor 6 DRβ1*15:01/DRβ1*13, 60 μg/mL
  Proliferation with antigen-incubated B-LCL: 203780.3 RLU
[1]; APC donor 1 *04:01, *07, 40 μg/mL
  Proliferation with antigen-incubated B-LCL, Mean: 11323 RLU
[1]; APC donor 2 *04:01*04:04, 40 μg/mL
  Proliferation with antigen-incubated B-LCL, Mean: 1786 RLU
[1]; APC donor 4 (autologous) *07, *13, 40 μg/mL
  Proliferation with antigen-incubated B-LCL, Mean: 84094 RLU
[1]; APC donor 6 *13, *15, 40 μg/mL
  Proliferation with antigen-incubated B-LCL, Mean: 113079 RLU
[1]; T-cell line 205-1H7, B-LCL Donor 1 DRβ1*04:01/DRβ1*07:01, 40 μg/mL
  Proliferation with antigen-incubated B-LCL: 8430 RLU
[1]; T-cell line 205-1H7, B-LCL Donor 2 DRβ1*04:01/DRβ1*04:04, 40 μg/mL
  Proliferation with antigen-incubated B-LCL: 2065 RLU
[1]; T-cell line 205-1H7, B-LCL Donor 4 (autologous) DRβ1*07/DRβ1*13, 40 μg/mL
  Proliferation with antigen-incubated B-LCL: 32418 RLU
[1]; T-cell line 205-1H7, B-LCL Donor 6 DRβ1*15:01/DRβ1*13, 40 μg/mL
  Proliferation with antigen-incubated B-LCL: 30583 RLU

## glatiramer acetate [GMA]
[2]; 222-AC11, control 0.680
  BrdU uptake: 1.244 OD450
[2]; 222-AF2, control 0.454
  BrdU uptake: 1.119 OD450
[2]; 222-AF5, control 0.606
  BrdU uptake: 1.133 OD450
[2]; 222-AG11, control 0.359
  BrdU uptake: 0.875 OD450
[2]; 222-AG12, control 0.448
  BrdU uptake: 0.949 OD450
[2]; 222-BA4, control 0.370
  BrdU uptake: 0.603 OD450
[2]; 222-BA11, control 0.255
  BrdU uptake: 0.783 OD450
[2]; 222-BC11, control 0.499
  BrdU uptake: 0.921 OD450
[2]; eight Donor 1 cell lines of Table 4
  increase in signal relative to (no antigen) control: at least 50%

## poly (Glu-Lys; 1:4) [GL 14]
GA-specific T-cell lines
  cell death: causes cell death
